Data set [1] has as its target Wild-type EGFR kinase protein (Homo sapiens, UniProt P00533). The data set is described as follows: experiment of inhibiting EGFR kinase activity (TR-FRET method). It counts as biochemical. On the procedure:
The inhibitory effect of the compounds on EGFR kinase activity was measured by TR-FRET method. The diluted solutions of the compounds were transfered to a 384-well plate (784075, Greiner), the plate was sealed and centrifuged at a speed of 1000 g for 1 minute. Wild-type EGFR kinase protein at 2-fold final concentration was prepared in 1×kinase buffer, 5 µL of wild-type EGFR at 2-fold final concentration was added to 384-well plate, the well plate was centrifuged at 1000 g for 30 seconds, and left at room temperature for 10 minutes. A mixture of 2-fold TK-substrate-biotin (2 µM) and ATP was prepared in 1×kinase buffer, and 5 µL of the mixture of 2×TK-substrate-biotin (2 µM) and ATP was added to start the reaction. The well plate was centrifuged at 1000 g for 30 seconds, sealed and left at room temperature for 40 minutes. […] The fluorescence signal values at 615 nm (Cryptate) and 665 nm (XL665) were detected by using Envision 2104 microplate reader. […] The IC50 was calculated with GraphPad 8.0 and the dose-reponse curve of the compound was plotted as follows: y=Bottom+(Top-Bottom)/(1+10^((logic50-x)×hillslope)), where x was logarithm of inhibitor concentration; and y was % inhibition rate.
(In TR-FRET formats the signal depends on donor and acceptor labels being close together.)

In data set [2] the target is T1, JAK3 (Mus musculus, UniProt Q62137).
T1 construct: endogenous in cells; host or cells: CTLL-2
T1 sequence (Q62137 1-1100): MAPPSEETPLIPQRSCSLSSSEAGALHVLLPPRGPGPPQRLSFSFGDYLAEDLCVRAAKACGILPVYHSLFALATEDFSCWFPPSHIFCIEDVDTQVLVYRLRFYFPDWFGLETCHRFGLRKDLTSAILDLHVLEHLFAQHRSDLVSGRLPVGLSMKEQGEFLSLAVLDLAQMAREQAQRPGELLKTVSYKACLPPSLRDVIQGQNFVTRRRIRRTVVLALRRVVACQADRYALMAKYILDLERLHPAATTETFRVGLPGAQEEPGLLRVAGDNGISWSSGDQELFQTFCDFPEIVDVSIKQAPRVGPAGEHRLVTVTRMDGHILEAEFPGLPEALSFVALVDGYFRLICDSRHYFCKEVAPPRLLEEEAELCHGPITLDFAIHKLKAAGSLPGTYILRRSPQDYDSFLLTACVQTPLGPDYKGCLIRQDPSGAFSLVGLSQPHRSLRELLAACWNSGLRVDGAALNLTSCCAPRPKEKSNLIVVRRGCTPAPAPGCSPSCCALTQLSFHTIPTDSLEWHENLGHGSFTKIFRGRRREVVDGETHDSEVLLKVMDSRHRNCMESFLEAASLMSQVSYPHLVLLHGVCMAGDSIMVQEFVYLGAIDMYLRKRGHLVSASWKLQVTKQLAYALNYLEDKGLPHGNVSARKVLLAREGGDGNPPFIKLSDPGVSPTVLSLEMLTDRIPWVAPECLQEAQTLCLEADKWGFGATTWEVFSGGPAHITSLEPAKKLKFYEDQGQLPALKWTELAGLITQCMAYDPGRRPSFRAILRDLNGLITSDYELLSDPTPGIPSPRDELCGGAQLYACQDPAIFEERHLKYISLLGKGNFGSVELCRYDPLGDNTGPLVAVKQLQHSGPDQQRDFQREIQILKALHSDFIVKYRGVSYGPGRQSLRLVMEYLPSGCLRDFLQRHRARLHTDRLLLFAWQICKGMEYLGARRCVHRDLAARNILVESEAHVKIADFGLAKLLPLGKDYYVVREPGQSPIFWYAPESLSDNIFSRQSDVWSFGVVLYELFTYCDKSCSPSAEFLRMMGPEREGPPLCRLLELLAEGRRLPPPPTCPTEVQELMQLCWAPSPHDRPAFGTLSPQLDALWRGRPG
The data set is described as follows: JAKs cell activity test: JAK3_pSTAT5 in IL-2-induced CTLL-2 cells. It counts as cell-based. The settings on record: pSTAT5, IL-2-induced CTLL-2 cells. On the procedure: THP1 cells were collected by centrifugation, resuspended with 1×HBSS, counted and diluted to a certain cell density. They were inoculated in a 384-well plate and cultured in a saturated humidity incubator with 37 °C and 5% CO2. The compound (DMSO final volume of 0.3%) was added to THP1 cells (10 doses in duplicates) and cultured in a saturated humidity incubator with 37 °C and 5% CO2. hIL-4 was added to stimulate cells and cultured in a saturated humidity incubator with 37 °C and 5% CO2. The lysis solution was added and incubated at room temperature. According to the instructions of AlphaLISA SureFire Ultra p-STAT6 detection kit, the lysis solution was transferred to pSTAT6 detection system, and the ALPHA signal was read by PE Envision microplate reader. The inhibition rate Inh%=((DMSO-sample)/(DMSO-background))×100 was calculated. IC50 was obtained by fitting with GraphPad Prism non-linear regression equation, and y=Bottom+(Top-Bottom)/(1+10^((LogIC50-x)×hillslope)), where x was the concentration of the compound and y was the inhibition rate.
JAK2_pSTAT5 was tesed in IL-3-induced BAF3 cells according to the above steps, and JAK3_pSTAT5 was tested in IL-2-induced CTLL-2 cells (without serum stimulation) according to the above steps.

In data set [3] the target is EGFR (T790M) (Homo sapiens, UniProt P00533, T790M). In words: experiment of inhibiting kinase activity, EGFR (T790M). The data set is classed as biochemical. The conditions noted are these: at 10 nM; read-out: inhibition rate EGFR(T790M). On the procedure:
The inhibition rates of tested compounds on JAK1, JAK2, JAK3, TYK2, CDK7, CDK9, EGFR (T790M) and LRRK2 kinases were measured. The test concentrations of the compounds were 10 nM and 100 nM, and the detection was performed by replicate wells. Alternatively, compounds were 3-fold serial diluted from 10 µM for 10 concentrations in replicate wells.

Data set [4] in a line: measurement of the solubility of compounds in water and diluted hydrochloric acid. The data set is classed as physicochemical. The settings on record: thermodynamic from solid. On the procedure: Example 117: measurement of the solubility of compounds in water and diluted hydrochloric acid
The compounds were dissolved in acetonitrile (LCMS pure) and prepared into standard samples having the concentration gradient of 1000 µg/mL, 500 µg/mL, 250 µg/mL, 125 µg/mL, 62.5 µg/mL, and 31.25 µg/mL.
About 1.0 mg of the powder of the compound to be tested was weighed and added to 0.3 mL of ultrapure water (pH-6), the resulting mixture was shaked thoroughly at room temperature overnight and centrifuged, and the supernatant was taken and diluted 10 times with acetonitrile. The sample was analyzed after mixing evenly.
153.8 µL of 6 M HCl was pipetted, 20 mL of water was added, and mixed evenly to prepare diluted hydrochloric acid solution A (pH-1.5). About 1.0 mg of the powder of the compound to be tested was weighed and added to 0.3 mL of diluted hydrochloric acid solution A, the resulting mixture was shaked thoroughly at room temperature for 1 hour and centrifuged, and the supernatant was taken and diluted 10 times with acetonitrile. The sample was analyzed after mixing evenly.
The standard sample and the sample to be tested were analyzed by Shimadzu LCMS-2020, where chromatographic column was Skim-psck GIST 5 µm C18 2.1*[…]; mobile phase A was water and mobile phase B was methanol; and flow rate was 0.3 mL/min. The gradient of B was as the following: 0 min: 10%; 0-1.0 min: 10%; 1.0-2.5 min: 95%; 3.0-4.0 min: 95%; 4.0-4.1 min: 10%; 4.1-6.0 min: 10%.
The relationship between the concentration and peak area of the standard sample was ploted into a standard curve, and the concentration of the sample to be tested was calibrated using this standard curve. Compound solubility = concentration of the sample to be tested × 10 [formula]

Consider one compound from patent publication EP4592286A1, “MACROCYCLIC NITROGEN-CONTAINING CROWN ETHER COMPOUND AND USE THEREOF AS PROTEIN KINASE INHIBITOR” (Artivila Biopharma, priority 2022, dated 2024).

In brackets after ≈: the same amount, converted by molar mass.

Sequence of EGFR (T790M) (P00533 25-1210 T790M): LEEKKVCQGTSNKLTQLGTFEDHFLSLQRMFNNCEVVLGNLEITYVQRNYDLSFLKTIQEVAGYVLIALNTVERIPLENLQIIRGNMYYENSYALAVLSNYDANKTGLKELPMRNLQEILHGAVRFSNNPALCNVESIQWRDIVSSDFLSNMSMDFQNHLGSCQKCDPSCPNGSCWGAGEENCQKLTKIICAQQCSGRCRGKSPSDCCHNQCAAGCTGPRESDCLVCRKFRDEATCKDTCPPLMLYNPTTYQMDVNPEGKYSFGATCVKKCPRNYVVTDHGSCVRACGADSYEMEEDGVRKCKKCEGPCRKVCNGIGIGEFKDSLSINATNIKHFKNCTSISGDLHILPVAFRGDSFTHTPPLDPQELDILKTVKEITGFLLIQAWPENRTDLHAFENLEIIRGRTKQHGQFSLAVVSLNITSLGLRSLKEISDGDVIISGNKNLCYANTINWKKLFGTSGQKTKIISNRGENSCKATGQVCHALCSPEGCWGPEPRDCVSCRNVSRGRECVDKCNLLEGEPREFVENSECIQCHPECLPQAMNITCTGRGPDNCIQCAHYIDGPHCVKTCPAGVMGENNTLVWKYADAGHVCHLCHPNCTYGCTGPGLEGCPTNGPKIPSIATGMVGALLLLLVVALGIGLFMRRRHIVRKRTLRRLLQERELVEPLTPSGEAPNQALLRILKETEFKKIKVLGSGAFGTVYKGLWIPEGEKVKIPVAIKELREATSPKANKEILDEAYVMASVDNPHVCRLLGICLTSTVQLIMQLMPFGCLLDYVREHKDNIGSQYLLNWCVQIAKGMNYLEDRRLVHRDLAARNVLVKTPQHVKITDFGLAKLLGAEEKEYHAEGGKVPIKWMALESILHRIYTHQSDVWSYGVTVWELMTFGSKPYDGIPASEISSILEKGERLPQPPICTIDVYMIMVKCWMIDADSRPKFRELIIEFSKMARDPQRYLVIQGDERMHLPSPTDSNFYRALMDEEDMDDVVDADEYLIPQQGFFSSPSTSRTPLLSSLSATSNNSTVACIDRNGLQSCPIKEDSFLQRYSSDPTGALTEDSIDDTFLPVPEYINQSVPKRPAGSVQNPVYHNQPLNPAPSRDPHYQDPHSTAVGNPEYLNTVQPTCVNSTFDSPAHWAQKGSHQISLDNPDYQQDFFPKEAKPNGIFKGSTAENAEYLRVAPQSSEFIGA
Sequence of Wild-type EGFR kinase protein (P00533 25-1210): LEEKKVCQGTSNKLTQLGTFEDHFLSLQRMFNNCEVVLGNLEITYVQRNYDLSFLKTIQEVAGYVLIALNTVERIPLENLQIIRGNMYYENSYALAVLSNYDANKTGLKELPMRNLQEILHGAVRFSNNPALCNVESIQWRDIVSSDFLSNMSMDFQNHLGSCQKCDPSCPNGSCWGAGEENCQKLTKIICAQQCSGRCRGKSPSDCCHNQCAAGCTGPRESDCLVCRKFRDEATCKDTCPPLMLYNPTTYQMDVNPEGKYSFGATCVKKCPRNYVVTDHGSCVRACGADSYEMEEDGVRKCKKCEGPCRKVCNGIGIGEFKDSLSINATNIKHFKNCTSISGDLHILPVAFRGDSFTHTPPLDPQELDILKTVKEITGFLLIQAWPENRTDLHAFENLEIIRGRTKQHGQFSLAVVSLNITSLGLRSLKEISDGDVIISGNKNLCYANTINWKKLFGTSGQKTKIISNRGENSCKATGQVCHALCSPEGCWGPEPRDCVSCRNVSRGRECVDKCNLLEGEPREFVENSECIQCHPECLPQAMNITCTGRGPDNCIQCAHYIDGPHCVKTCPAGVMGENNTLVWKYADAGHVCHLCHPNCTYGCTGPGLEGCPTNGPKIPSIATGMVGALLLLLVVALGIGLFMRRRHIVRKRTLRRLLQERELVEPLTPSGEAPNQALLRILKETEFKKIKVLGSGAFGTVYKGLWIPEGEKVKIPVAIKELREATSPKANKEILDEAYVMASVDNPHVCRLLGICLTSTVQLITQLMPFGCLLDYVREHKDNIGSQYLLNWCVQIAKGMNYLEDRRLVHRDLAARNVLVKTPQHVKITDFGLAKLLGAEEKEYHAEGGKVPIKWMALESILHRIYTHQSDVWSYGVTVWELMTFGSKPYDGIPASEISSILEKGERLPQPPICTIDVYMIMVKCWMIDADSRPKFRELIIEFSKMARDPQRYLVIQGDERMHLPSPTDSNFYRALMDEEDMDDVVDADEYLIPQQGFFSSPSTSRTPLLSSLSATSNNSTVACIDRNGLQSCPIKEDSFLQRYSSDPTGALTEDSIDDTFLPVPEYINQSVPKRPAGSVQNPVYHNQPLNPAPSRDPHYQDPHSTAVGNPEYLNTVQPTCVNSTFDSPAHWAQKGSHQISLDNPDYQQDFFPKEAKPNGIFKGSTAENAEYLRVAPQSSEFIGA

Broadly, the IC50 is the concentration at which inhibition is half-maximal. A word on the EC50: it is the concentration needed to bring the measured effect to its halfway point. The term inhibition denotes the change of the read-out against control, counted positive when it falls. One may read the solubility as the concentration that dissolves in the medium under given conditions. A low value points to a poorly soluble substance. With `C=CC(=O)Nc1cccc(Nc2nc(Nc3ccc4c(c3)OCCOCCN(C)CCO4)ncc2Cl)c1` [Example 54, N-(3-((5-chloro-2-((7-methyl-2,3,6,7,8,9-hexahydro-5H-benzo[b][1,4,7]trioxa[10]azacyclododecan-13-yl)amino)pyrimidin-4-yl)amino)phenyl)acrylamide], the IC50 in data set [1] was < 50 nM. In addition, the EC50 in data set [2] lay within 50 to 500 nM. Moreover, the inhibition at 0.01 µM in data set [3] was > 80%. Also, in data set [4] (simulated gastric fluid, diluted hydrochloric acid solution A (pH-1.5), room temperature, 1 hour), the solubility at 1 h was > 3730 µg/mL. Besides, the concentration in solution in data set [4] (ultrapure water (pH-6), room temperature overnight) (solubility) was 886 µg/mL (≈ 1690 µM).
